Results from patent US6720346B2, “Thiazole benzamide derivatives and pharmaceutical compositions for inhibiting cell proliferation” (Agouron Pharmaceuticals, Inc., priority 2001, dated 2004).

Columns and labels:
HCT-116 cell line = experiment: Inhibition of cell growth, MTT tetrazolium salt assay; type: cell-based
Procedure, shortened: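 HCT-116 cells in McCoy's 5A were dosed 4 h after plating with compounds in 0.5% DMSO and grown 3–5 days at 37 °C. Then 0.2 mg/mL MTT was added for 4 h and formazan absorbance read at 540 nm. IC50/IC90 came from semi-log plots against DMSO-only controls.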

CDK2/cyclin A = molecular target: T1, CDK2/cyclin A (Homo sapiens, UniProt P24941); experiment: Inhibition of CDK2/cyclin A retinoblastoma kinase activity (Ki; % inhibition); type: biochemical
T1 construct: made in house; host or cells: CDK2: insect cells (baculovirus); cyclin A: E. coli
Procedure, shortened: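 Apparent Ki values came from fitting concentration-dependent activity data to competitive (or competitive tight-binding) models, and % inhibition from single 30 nM screens of library compounds. Activity was measured as ³²P/³³P incorporation from 25 μM ATP into an Rb substrate by 10 or 19 nM CDK2/delta cyclin A at 30 °C over 60–75 min, pH 7.4.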

human CDK4/cyclin D3 = molecular target: T2, human CDK4/cyclin D3 (Homo sapiens, UniProt P11802); experiment: Inhibition of CDK4/cyclin D retinoblastoma kinase activity (Ki; % inhibition); type: biochemical
T2 construct: made in house; host or cells: insect cells co-infected with baculovirus vectors
Procedure, shortened: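 Radiometric filter-binding read-out: Rb residues 386-928 phosphorylated by 5 nM CDK4/cyclin D3(1-264) from baculovirus-infected insect cells, 25 μM ATP, HEPES pH 7.4, 30 °C. Run 20 min, or 60 min for tight-binding inhibitors. Screening at 30 nM theoretical compound; apparent Ki by competitive-inhibition fitting.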

[1] = HCT-116 cells, 0.25 μM compound

T2 sequence (P11802 whole entry): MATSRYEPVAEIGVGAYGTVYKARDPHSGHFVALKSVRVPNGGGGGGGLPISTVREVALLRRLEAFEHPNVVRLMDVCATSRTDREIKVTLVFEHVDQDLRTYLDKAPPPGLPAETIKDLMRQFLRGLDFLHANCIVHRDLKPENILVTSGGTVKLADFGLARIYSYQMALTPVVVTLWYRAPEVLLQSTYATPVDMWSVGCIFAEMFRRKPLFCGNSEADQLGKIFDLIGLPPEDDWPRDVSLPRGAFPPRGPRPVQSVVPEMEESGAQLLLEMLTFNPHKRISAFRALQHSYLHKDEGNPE
T2 sequence (P30281 1-264 partner limits assumed): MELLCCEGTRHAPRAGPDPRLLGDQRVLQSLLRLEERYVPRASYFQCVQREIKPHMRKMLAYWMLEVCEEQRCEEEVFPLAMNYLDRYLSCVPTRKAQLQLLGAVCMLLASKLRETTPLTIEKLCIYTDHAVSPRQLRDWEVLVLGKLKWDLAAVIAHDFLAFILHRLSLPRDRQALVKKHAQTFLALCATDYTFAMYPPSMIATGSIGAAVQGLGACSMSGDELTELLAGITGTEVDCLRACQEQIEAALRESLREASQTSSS

Row | Structure (SMILES) | HCT-116 % Inhibition at 0.1 μM (HCT-116 cell line; HCT-116, at 0.1 μM) [%] | HCT-116 % Inhibition at 0.25 μM (HCT-116 cell line; HCT-116, at 0.25 μM) [%] | CDK2 % Inhibition at 0.03 μM (CDK2/cyclin A; at 0.03 μM) [%] | CDK4 % Inhibition at 0.03 μM (human CDK4/cyclin D3; at 0.03 μM) [%] | HCT-116 % Inhibition at 0.1 μM (HCT-116 cell line; HCT-116, at 0.1 μM, 0.1 µM) [%] | HCT-116 % Inhibition at 0.25 μM (HCT-116 cell line; HCT-116, at 0.25 μM, 0.25 µM) [%] | HCT-116 % Inhibition at 0.1 μM (HCT-116 cell line; HCT-116 cells, 0.1 μM compound) [%] | HCT-116 % Inhibition at 0.25 μM (HCT-116 cell line; [1]) [%] | CDK2 % Inhibition at 0.03 μM (CDK2/cyclin A; 0.03 μM compound) [%] | CDK4 % Inhibition at 0.03 μM (human CDK4/cyclin D3; 0.03 μM compound) [%]
1 | Nc1nc(Nc2ccc(C(=O)NCCc3ccccc3Cl)cc2)sc1C(=O)c1c(F)cccc1F [Example G177] | 24 | 45 | 10 | 23 |  |  |  |  |  | 
2 | Nc1nc(Nc2ccc(C(=O)NC3CCN(Cc4ccccc4)CC3)cc2)sc1C(=O)c1c(F)cccc1F [Example G178] | 43 | 83 | 20 | 54 |  |  |  |  |  | 
3 | N#CCCN(CC1CCCO1)C(=O)c1ccc(Nc2nc(N)c(C(=O)c3c(F)cccc3F)s2)cc1 (centres unmarked) [Example G179] | 21 | 42 | −5 | 10 |  |  |  |  |  | 
4 | Nc1nc(Nc2ccc(C(=O)NCc3ccccn3)cc2)sc1C(=O)c1c(F)cccc1F [Example G180] | 25 | 68 | 22 | 29 |  |  |  |  |  | 
5 | Nc1nc(Nc2ccc(C(=O)NCc3ccccc3)cc2)sc1C(=O)c1c(F)cccc1F [Example G181] | 28 | 75 | 30 | 36 |  |  |  |  |  | 
6 | C=C(C)CN(C)C(=O)c1ccc(Nc2nc(N)c(C(=O)c3c(F)cccc3F)s2)cc1 [Example G182] | 23 | 52 | −2 | 6 |  |  |  |  |  | 
7 | CCC(CO)NC(=O)c1ccc(Nc2nc(N)c(C(=O)c3c(F)cccc3F)s2)cc1 (centres unmarked) [Example G183] |  |  | 23 | 38 | 11 | 48 |  |  |  | 
8 | Nc1nc(Nc2ccc(C(=O)N[C@H]3CCc4ccccc43)cc2)sc1C(=O)c1c(F)cccc1F [Example G184] | 17 | 58 | 34 | 36 |  |  |  |  |  | 
9 | COc1ccccc1CCNC(=O)c1ccc(Nc2nc(N)c(C(=O)c3c(F)cccc3F)s2)cc1 [Example G185] | 10 | 49 | 7 | 20 |  |  |  |  |  | 
10 | CCCCNC(=O)c1ccc(Nc2nc(N)c(C(=O)c3c(F)cccc3F)s2)cc1 [Example G186] | 14 | 51 | 7 | 30 |  |  |  |  |  | 
11 | CN(C(=O)c1ccc(Nc2nc(N)c(C(=O)c3c(F)cccc3F)s2)cc1)C1CCCCC1 [Example G187] | 16 | 48 | −2 | 12 |  |  |  |  |  | 
12 | Nc1nc(Nc2ccc(C(=O)NCc3cccnc3)cc2)sc1C(=O)c1c(F)cccc1F [Example G188] | 17 | 51 | 29 | 39 |  |  |  |  |  | 
13 | CC(=O)c1cccc(NC(=O)c2ccc(Nc3nc(N)c(C(=O)c4c(F)cccc4F)s3)cc2)c1 [Example G189] | 13 | 56 | 10 | 18 |  |  |  |  |  | 
14 | CCOC(=O)c1ccc(NC(=O)c2ccc(Nc3nc(N)c(C(=O)c4c(F)cccc4F)s3)cc2)cc1 [Example G190] | 9 | 55 | 5 | 4 |  |  |  |  |  | 
15 | C[C@H](NC(=O)c1ccc(Nc2nc(N)c(C(=O)c3c(F)cccc3F)s2)cc1)C(N)=O [Example G191] | 3 | 51 | 14 | 15 |  |  |  |  |  | 
16 | CNC(=O)C(C)NC(=O)c1ccc(Nc2nc(N)c(C(=O)c3c(F)cccc3F)s2)cc1 (centres unmarked) [Example G192] | 13 | 49 | 8 | 23 |  |  |  |  |  | 
17 | COc1cccc(CCNC(=O)c2ccc(Nc3nc(N)c(C(=O)c4c(F)cccc4F)s3)cc2)c1 [Example G193] | 17 | 56 | 19 | 26 |  |  |  |  |  | 
18 | Nc1nc(Nc2ccc(C(=O)N3CCC(Cc4ccccc4)CC3)cc2)sc1C(=O)c1c(F)cccc1F [Example G194] | 20 | 49 | 1 | 19 |  |  |  |  |  | 
19 | CN(CC#N)C(=O)c1ccc(Nc2nc(N)c(C(=O)c3c(F)cccc3F)s2)cc1 [Example G195] | 17 | 47 | 20 | 26 |  |  |  |  |  | 
20 | Nc1nc(Nc2ccc(C(=O)NCCc3ccc(Cl)cc3Cl)cc2)sc1C(=O)c1c(F)cccc1F [Example G196] | 13 | 48 | 7 | 13 |  |  |  |  |  | 
21 | Cc1ccc(NC(=O)c2ccc(Nc3nc(N)c(C(=O)c4c(F)cccc4F)s3)cc2)cc1 [Example G197] |  |  |  |  |  |  | 26 | 61 | 14 | 9
22 | NC(=O)C(CO)NC(=O)c1ccc(Nc2nc(N)c(C(=O)c3c(F)cccc3F)s2)cc1 (centres unmarked) [Example G198] |  |  |  |  |  |  | 9 | 44 | 19 | 42
23 | Nc1nc(Nc2ccc(C(=O)NC3CCOC3=O)cc2)sc1C(=O)c1c(F)cccc1F (centres unmarked) [Example G199] |  |  |  |  |  |  | 12 | 52 | 18 | 22
24 | CCCCCNC(=O)c1ccc(Nc2nc(N)c(C(=O)c3c(F)cccc3F)s2)cc1 [Example G200] |  |  |  |  |  |  | 19 | 50 | 15 | 23
25 | Nc1nc(Nc2ccc(C(=O)N3CCC(O)(c4ccccc4)CC3)cc2)sc1C(=O)c1c(F)cccc1F [Example G202] |  |  |  |  |  |  | 20 | 48 | 5 | 25
26 | COc1cccc(CCNC(=O)c2ccc(Nc3nc(N)c(C(=O)c4c(F)cccc4F)s3)cc2)c1OC [Example G203] |  |  |  |  |  |  | 18 | 53 | 7 | 20
27 | CCCc1ccc(NC(=O)c2ccc(Nc3nc(N)c(C(=O)c4c(F)cccc4F)s3)cc2)cc1 [Example G204] |  |  |  |  |  |  | 19 | 49 | 6 | 10
28 | CCCCOc1ccc(NC(=O)c2ccc(Nc3nc(N)c(C(=O)c4c(F)cccc4F)s3)cc2)cc1 [Example G205] |  |  |  |  |  |  | 12 | 52 | 1 | 7
29 | Nc1nc(Nc2ccc(C(=O)NCCc3ccccc3F)cc2)sc1C(=O)c1c(F)cccc1F [Example G206] |  |  |  |  |  |  | 13 | 58 | 13 | 19
